Assays:
I. minor workers [1] = assay: T-maze bioassay; type: in vivo, Incisitermes minor; settings: at 24 h; for percent of termites found in the treated choice block (mean±SEM): block treated with 100 μL of 0.1 mg/mL pinene in methanol; for percent of termites found in the untreated choice block (mean±SEM): other block treated with 100 μL of 0.1 mg/mL pinene in methanol
Excerpt: Termites. Western drywood termites, I. minor, were extracted from several pieces of infested wood collected in Riverside, CA. Each colony was stored in a plastic container (30.5 by 21.6 by 6.4 cm) with small pieces of basswood (150 by 100 by 3.2 mm; Midwest Products Co., Inc., Darien, IL) as a food source. A couple of small openings were made on the sides of the containers for ventilation, and the containers were placed within a larger plastic box (40.6 cm by 22.9 cm by 27.9 cm) containing a saturated NaCl solution to maintain 75% relative humidity (RH) within the larger box (Winston and Bates 1960). The stock colony boxes were kept in a growth chamber (Thermo Fisher Scientific, Waltham, MA) at 26° C. without light. To minimize the chance of using termites that were damaged during the collection process, the collected termites were left undisturbed for at least 7 days (d), and the surviving termites at the end of this period were used in the experiments. One or two different populations were randomly chosen to set up each experimental trial. Only worker termites (approximately 5 mm in length) were used for the experiments.
Chemicals. Two monoterpenes, α-pinene (98%, Sigma-Aldrich, St. Louis, MO) and (−)-β-pinene (>99%, Sigma-Aldrich), were individually tested for their effects on drywood termite behavior. Methanol was used to dissolve the pinenes at 0.1 mg/mL concentration. Clean methanol served as a solvent-only control.
T-maze Bioassay. A T-maze bioassay was developed to study the effects of α- or β-pinene on the choice behavior of I. minor within a simplified termite gallery system. The T-maze consisted of three basswood blocks (2.54 cm by 2.54 cm by 10.16 cm). One block served as a central acclimation block, while the other two served as lateral choice blocks (FIG. 2). All blocks were drilled along the centerline to form longitudinal tunnels (8.9 cm in depth, 0.95 cm in diameter), which ended near the opposite end of the block (about 1.2 cm away from the opposite end of the block). For the acclimation block, a through hole (0.95 cm in diameter) was drilled to add a cross tunnel, perpendicularly intersecting the longitudinal tunnel at its closed end. This cross tunnel provided connection points between the acclimation block and two choice blocks.
Twenty termites from the stock colony were placed in the tunnel of the acclimation block and confined there for 24 hours (h) by sealing the holes with rubber stoppers. Two choice blocks were randomly assigned for treatment (treated block) or no treatment (untreated block). […] After 24 hours, T-mazes were disassembled, and numbers of termites in each of the three blocks (two choice blocks and one acclimation block) were recorded. […]

I. minor workers [2] = assay: Channel arena bioassay; type: in vivo, Incisitermes minor; settings: after 24 hours; pinene 1.3 μg/cm2 (100 μL of 0.1 mg/mL in methanol); 20 termites, 10 replicates
Excerpt: (§1) Termites. Western drywood termites, I. minor, were extracted from several pieces of infested wood collected in Riverside, CA. Each colony was stored in a plastic container (30.5 by 21.6 by 6.4 cm) with small pieces of basswood (150 by 100 by 3.2 mm; Midwest Products Co., Inc., Darien, IL) as a food source. A couple of small openings were made on the sides of the containers for ventilation, and the containers were placed within a larger plastic box (40.6 cm by 22.9 cm by 27.9 cm) containing a saturated NaCl solution to maintain 75% relative humidity (RH) within the larger box (Winston and Bates 1960). The stock colony boxes were kept in a growth chamber (Thermo Fisher Scientific, Waltham, MA) at 26° C. without light. […]
To establish the “initial-aggregation zone,” twenty termites were confined to a 5-cm zone at one end of the channel for 24 hours (h) using a cotton plug (FIG. 1). […] After 24 hours (h), the number of termites in the treatment zone was counted under red light (110 lux, Tacklife; Levittown, NY) to minimize any disruption to the termites during observation (Cabrera and Rust 1996). […]
(§2) Statistical Analyses. […] The data were first analyzed with a Kaplan-Meier survival analysis for the insecticide bioassays. […]

I. minor workers [3] = assay: Insecticide bioassay for fipronil (channel arena); type: in vivo; settings: Incisitermes minor, 336 h; day 14; 10 μL of 0.06% aqueous fipronil suspension on 1.43 cm^2; pinene 100 μL of 0.1 mg/mL in methanol; read-out: final cumulative mortality
Excerpt: as §1
Insecticide Bioassay. The effect of pinenes on the efficacy of insecticide residue was evaluated using the channel arena bioassay design (FIG. 2). […]
Two different control groups were included in the experimental design: one without insecticide, and the other with insecticide. […] Termites were recorded as dead (no movement) or alive. […]
as §2

Structure (SMILES) | percent of termites found in the treated choice block (mean±SEM) (I. minor workers [1]) [%] | percent of termites found in the untreated choice block (mean±SEM) (I. minor workers [1]) [%] | percent of termites found in the treatment zone (mean±SEM) (I. minor workers [2]) [%] | mortality at 100 µg/mL (I. minor workers [3]) [%]
CC1=CCC2CC1C2(C)C (stereo not drawn) [α-pinene] | 45.5±14.1 | 7.0±7.0 | 55±9.3 | –
C=C1CC[C@H]2C[C@@H]1C2(C)C [β-pinene, (−)-β-pinene] | 54.5±14.8 | 4.5±3.5 | 58±6.3 | –
N#Cc1nn(-c2c(Cl)cc(C(F)(F)F)cc2Cl)c(N)c1[S+]([O-])C(F)(F)F (stereo not shown) [fipronil only, fipronil] | – | – | – | 76.5 ± 5.7
